“Also recorded” adds a separate entry of the source. Blank lines part the entries; values can stand above or below the compound they belong to.
What was measured:
[1] = Thiol-click (click-to-release) kinetics followed by NMR; type: physicochemical; conditions: for relative reactivity in thiol and amine addition reactions (in words): both thiol and amine addition (FIG. 2B-2C); for thiol-click reaction rate (in words): MeOH-d4, A1:thiol 2:1 (FIG. 2B)
Protocol: (§1) 10 μmol (2 eq.) of A1 molecules was dissolved in single or mixed deuterated solvents (the volume of solvent depends on the solubility of A1). Then, 5 μmol (1 eq.) of 2-(2-Methoxyethoxy) ethanethiol or benzylamine was added to the solution. The reaction was immediately followed by NMR. The final concentration of A1 for each molecule is shown at the end of supplementary information case by case. The conversion of thiol or amine was calculated from the integration of corresponding peaks by NMR and plotted against reaction time.
Compound 1, 2, 3, 4, 5, 8, 11, 12, 13: 10 μmol (2 eq.) of molecule 1, 2, 3, 4, 5, 8, 11, 12, 13 was dissolved in 1000 μL of MeOH-d4. Then, 5 μmol (1 eq.) of thiol was added to the solution. The reaction was immediately followed by NMR.
Compound 6, 7, 9: 10 μmol (2 eq.) of molecule 6, 7, 9 was dissolved in 500 μL of MeOH-d4 and 500 μL of 50 mM pH 7.4 phosphate buffer. Then, 5 μmol (1 eq.) of thiol or amine was added to the solution. The reaction was immediately followed by NMR.
Compound 10: 10 μmol (2 eq.) of molecule 10 was dissolved in 1000 μL of DMSO-d6 and 500 μL of 50 mM pH 7.4 phosphate buffer. Then, 5 μmol (1 eq.) of thiol or amine was added to the solution. The reaction was immediately followed by NMR.
Compound 14, 15, 16: 10 μmol (2 eq.) of molecule 14, 15, 16 was dissolved in dissolved in 500 μL of MeOH-d4 and 500 μL of 50 mM pH 6.2 phosphate buffer. Then, 5 μmol (1 eq.) of thiol or amine was added to the solution. The reaction was immediately followed by NMR.

β-lactoglobulin B (βLGb) = target: T1, β-lactoglobulin B (βLGb) (Bos taurus, UniProt P02754); experiment: βLGb labeling, ESI-MS and MS/MS of digests; type: biochemical; conditions: for modification sites / selectivity on βLGb: digest, MS/MS; for time until βLGb fully labelled: excess of reagent, disappearance of unmodified protein peaks in ESI-MS; for number of modifications in βLGb: mass shift, ESI-MS
T1 construct: purchased
T1 sequence (P02754 17-178): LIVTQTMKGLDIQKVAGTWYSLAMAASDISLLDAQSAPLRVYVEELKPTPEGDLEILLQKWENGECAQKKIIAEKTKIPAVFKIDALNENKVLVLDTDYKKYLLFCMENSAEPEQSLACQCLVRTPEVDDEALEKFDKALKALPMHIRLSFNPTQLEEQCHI
Protocol: For βLGb labeling reaction, βLGb was first denatured by 8 M of urea to expose the free cysteine. The denatured protein was then diluted with 50 mM pH 8.0 phosphate buffer, which results in a protein solution concentration of 100 μM. This protein solution was incubated with 20 equivalents of 1 for 5 min or with 20 equivalents of 8 for 40 min at room temperature to obtain the fully modified proteins respectively. After labeling, the reaction mixtures were injected immediately into an HPLC to remove excess labeling reagents and phosphate salts and then later analyzed by ESI-MS.
The labeled βLGb protein samples were first buffer-exchanged using 10K NMWL Amicon Ultra centrifugal filters (Millipore, Burlington, MA) with 100 mM triethylamine acetate (pH 8.0), and reconstituted with 1 M urea before enzymatic digestion. To reduce the disulfide bonds in βLGb, TCEP in water was added at a protein:TCEP molar ratio of 1:20, and the sample was incubated at room temperature for 10 min. To alkylate the reduced cysteines, iodoacetamide in water was added at a protein:iodoacetamide molar ratio of 1:80, and the sample was incubated in the dark at room temperature for 30 min. The denatured, reduced, and alkylated protein samples were then digested with trypsin at an enzyme: substrate ratio of 1:10. After 4 h of digestion at 37° C., the enzyme was separated from the mixture by centrifugation using a 10K NMWL Microcon filter (Millipore, Burlington, MA). The filtrate was then analyzed by LC-MS and LC-MS/MS.
To quench the labeling reaction and to remove excess labeling reagents and buffer salts, a Thermo Scientific Ultimate 3000 HPLC system (Thermo Scientific, Tewksbury, MA) with an OPTI-TRAP C4 reverse phase column (1×8 mm) was used. The protein was eluted using an acetonitrile gradient that increases from 1 to 99% over 12 min at a flow rate of 0.2 mL/min. The labeled protein was collected for proteolytic digestion or intact protein MS characterization.
Mass spectral analyses of the HPLC separated intact protein samples (Myo and βLGb) from the covalent labeling experiments were acquired on a Bruker AmaZon (Billerica, MA) quadrupole ion trap mass spectrometer equipped with an electrospray ionization source. The electrospray needle voltage was kept at 4 kV, and the capillary temperature was set to 250° C. Mass spectra of intact BCA protein samples were acquired on a Thermo Orbitrap Fusion Tribrid (Tewksbury, MA) mass spectrometer. The electrospray ionization source was typically operated at a needle voltage of 3800 V, and the ion transfer tube temperature was set to 325° C.
LC-MS and LC-MS/MS analyses of protein proteolytic fragments were conducted on a Thermo Orbitrap Fusion Tribrid (Tewksbury, MA) mass spectrometer. The electrospray ionization source was typically operated at a needle voltage of 2100 V, and the ion transfer tube temperature was set to 300° C. Tandem mass spectra were collected using CID with a normalized collision energy of 35%. Due to the large number of detectable peaks, an exclusion limit of 60 s was applied after five spectra had been collected for any given peak. The resolution of the Orbitrap was set to 60000.
Raw mass spectral data files were analyzed by Thermo Proteome Discoverer 2.2 software. Spectra were searched against the corresponding protein sequence. Variable modification by certain labeling reagents of the residues and the protein N-terminus was added as a dynamic modification. Other dynamic modifications such as oxidation of methionine and carboxyamidomethylation of cysteine were also used in the searches. Trypsin enzyme cleavage was selected, and a precursor mass tolerance of 10 ppm was used. Identifications of peptides and modifications at high confidence levels were used and were manually checked in all cases.

Myoglobin (Myo) = target: T2, Myoglobin (Myo) (Equus caballus, UniProt P68082); experiment: Myoglobin reversible modification and biophysical characterization; type: biochemical
T2 construct: purchased
T2 sequence (P68082 whole entry): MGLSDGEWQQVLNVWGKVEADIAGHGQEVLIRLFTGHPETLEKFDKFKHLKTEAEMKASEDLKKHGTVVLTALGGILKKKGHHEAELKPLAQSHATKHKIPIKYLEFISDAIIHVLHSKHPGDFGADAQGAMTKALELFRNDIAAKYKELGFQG
Protocol: For Myoglobin (Myo) reversible modification reactions, the modified protein solution was prepared by reacting 100 μM of the Myo with 20 equivalents of 1 for 5 min in 50 mM pH 8.0 phosphate buffer at room temperature. The proteins were collected from HPLC purification from previous modification reactions, and the excess labeling reagents were removed from the reaction mixtures. The collected protein solution was characterized by ESI-MS or other biophysical characterizations such as Circular Dichroism (CD) and Ultraviolet-Visible Spectroscopy (UV-Vis). The same protein solution was also buffer-exchanged using 10K NMWL Amicon Ultra centrifugal filters (Millipore, Burlington, MA) with 50 mM pH 7.4 phosphate buffer to yield a 100 μM solution for further reverse reaction. […] After reverse modification reaction, the reaction mixture was injected to a LC-MS system for intact protein analyses. […]
Far-UV CD analyses were performed on a Jasco J-1500 spectropolarimeter. CD spectra were recorded at room temperature over a scan range of 260 to 200 nm. […]
Temperature dependent CD measurements were also performed for the protein samples to evaluate the thermal stability (melting temperature) of Myo before and after labeling. Ellipticity at 222 nm was recorded every 1° C. from 25° C. to 90° C. […] Samples were measured in triplicates and the results were shown in average values.

[2] = Amine-click kinetics followed by NMR; type: physicochemical
Protocol: as §1
• Compound 1, 2, 3, 4, 5, 6, 7, 8, 9, 11, 12, 13: 10 μmol (2 eq.) of molecule 1, 2, 3, 4, 5, 6, 7, 8, 9, 11, 12, 13 was dissolved in 500 μL of MeOH-d4 and 500 μL of 50 mM pH 7.4 phosphate buffer. Then, 5 μmol (1 eq.) of benzylamine was added to the solution. The reaction was immediately followed by NMR.
Compound 10: 10 μmol (2 eq.) of molecule 10 was dissolved in 1000 μL of DMSO-d6 and 500 μL of 50 mM pH 7.4 phosphate buffer. Then, 5 μmol (1 eq.) of benzylamine was added to the solution. The reaction was immediately followed by NMR.
Compound 14, 15, 16: 10 μmol (2 eq.) of molecule 14, 15, 16 was dissolved in 800 μL of MeOH-d4 and 200 μL of 50 mM pH 7.4 phosphate buffer. Then, 5 μmol (1 eq.) of benzylamine was added to the solution. The reaction was immediately followed by NMR.

[3] = Thiol-triggered declick of thiol/amine click products followed by NMR; type: physicochemical
Protocol: Typically, product of thiol-A1 or amine-A1 click product was dissolved in single or mixed deuterated solvents (the volume of solvent depends on the solubility of A1 The volume of solvent depends on the solubility of click product). Then, thiol was added to the solution. The reaction was immediately followed by NMR.
Compound 17: 10 μmol (1 eq.) of 17 was dissolved in 500 μL of MeOH-d4 and 500 μL of 50 mM pH6.8 phosphate buffer. Then, 80 μmol (8 eq.) of thiol was added to the solution. Final concentration of 17 is 10 mM.
Compound 18: 10 μmol (1 eq.) of 18 was dissolved in 500 μL of MeOH-d4 and 500 μL of 50 mM pH7.4 phosphate buffer. Then, 80 μmol (8 eq.) of thiol was added to the solution. Final concentration of 18 is 10 mM.
Compound 19: 10 μmol (1 eq.) of 19 was dissolved in 500 μL of MeOH-d4 and 500 μL of 50 mM pH7.4 phosphate buffer. Then, 10 μmol (0.5 eq.) of thiol was added to the solution. Final concentration of 19 is 10 mM.
Compound 20: 10 μmol (1 eq.) of 20 was dissolved in 1000 μL of MeOH-d4 and 500 μL of 50 mM pH7.4 phosphate buffer. Then, 10 μmol (0.5 eq.) of thiol was added to the solution. Final concentration of 20 is 6.67 mM.
Compound 21: 10 μmol (1 eq.) of 21 was dissolved in 500 μL of MeOH-d4 and 500 μL of 50 mM pH7.4 phosphate buffer. Then, 10 μmol (0.5 eq.) of thiol was added to the solution. Final concentration of 21 is 10 mM. […]

Structure (SMILES): C=C(COC(=O)Nc1ccc([N+](=O)[O-])cc1)C(=O)NC [Compound 10]
- relative reactivity in thiol and amine addition reactions (in words) [1]: considerably slower than the corresponding acrylates

- modification sites / selectivity on βLGb (β-lactoglobulin B (βLGb)): only the free cysteine site was modified
- time until βLGb fully labelled (β-lactoglobulin B (βLGb)): ≤ 40 min
- number of modifications in βLGb (β-lactoglobulin B (βLGb)): one
Structure (SMILES): C=C(C[N+](CC)(CC)CC)C(=O)NC [Compound 8]
- relative reactivity in thiol and amine addition reactions (in words) [1]: considerably slower than the corresponding acrylates; also recorded: less reactive than ester 1

- reversal of myoglobin modification by thiol (Myoglobin (Myo); 10 equivalents of thiol for 2 hours): reversed to unmodified myoglobin
- modifications on myoglobin (Myoglobin (Myo); treated with 1, ESI-MS): Multiple modifications
- time until βLGb fully labelled (β-lactoglobulin B (βLGb)): ≤ 5 min
- number of modifications in βLGb (β-lactoglobulin B (βLGb)): one to four
Structure (SMILES): C=C(C[N+](CC)(CC)CC)C(=O)OC [Compound 1]
- time for completion of reaction with the thiol ([1]; 1H NMR, 0.5 equivalent of thiol, 50 mM pH 7.4 phosphate buffer (FIG. 7)): 3 min
- modification sites / selectivity on βLGb (β-lactoglobulin B (βLGb)): non-selective; also recorded: modifications of other nucleophilic residues including lysine, tyrosine and threonine
- time for completion of reaction with benzylamine ([2]; pH 7.4): ~50 min

Structure (SMILES): C=C(CN(CC(=C)C(=O)OC)Cc1ccccc1)C(=O)OC [Compound 23]
- benzylamine (29) released in declick ([3]; 2 equivalents of T2, MeOH-d4 / 50 mM pH 7.4 phosphate buffer 2:1): More than 80%

Structure (SMILES): C=C(C[n+]1ccccc1)C(=O)OC [Compound 4]
- thiol-click reaction rate (in words) [1]: much slower
- reactivity toward benzylamine (in words) ([2]; pH maintained, deuterated MeOH/buffer mixed media (FIG. 2C)): higher than 5

Structure (SMILES): C=C(CSCCOCCOC)C(=O)OC [Compound 17]
- originally clicked T2 released in declick ([3]; 8 equivalents of ethanethiol (T1), MeOH-d4 / 50 mM pH 6.8 phosphate buffer 1:1): 70%

Structure (SMILES): C=C(C[n+]1ccc(N(C)C)cc1)C(=O)OC [Compound 5]
- thiol-click reaction rate (in words) [1]: much slower; also recorded: faster than 4

Structure (SMILES): C=C(COC(C)=O)C(=O)NC [Compound 9]
- relative reactivity in thiol and amine addition reactions (in words) [1]: considerably slower than the corresponding acrylates

Source: US12215078B2, “Compositions and methods for protein labeling, modification, analysis, and targeted delivery” (University of Massachusetts, priority 2018, dated 2025)
